This note sets out measurements from patent US11427569B2, “Benzoimidazole indolyl methanes and methods of using them to inhibit PCKS9 and PCKS9-mediated ailments” (Wisconsin Alumni Research Foundation, priority 2019, dated 2022).

The target of the assay is T1, PCSK9 (Homo sapiens, UniProt Q8NBP7).
T1 construct: endogenous in cells; host or cells: HepG2 (ATCC HB-8065)
Nature of the assay: ELISA of secreted (extracellular, medium) PCSK9 in HepG2 cells. It counts as cell-based. The note with it: for Activity at 1 μM (% of remaining PCSK9): 1 μM compound; for Activity at 1 μM (% of remaining PCSK9) / Activity at 10 μM (% of remaining PCSK9): HepG2 cells, DMSO = 100%; for Activity at 10 μM (% of remaining PCSK9): 10 μM compound; for IC50: dose-response curves, extracellular PCSK9, cultured HepG2 cells (FIG. 4). The method, then: The human hepatoma cell line, HepG2, was cultured and maintained in low glucose Dulbecco's modified Eagle's medium (DMEM) supplemented with 10% fetal bovine serum (FBS) and 1% penicillin, streptomycin solution. (ATCC HB-8065, American Type Culture Collection, Manassas, Va.) The medium was further supplemented with 1% each of nonessential amino acids (NEAA), sodium pyruvate and L-glutamine.
Freshly cultured HepG2 cells were harvested from vacuum gas plasma-treated T75 cell culture flasks and plated onto vacuum gas plasma-treated clear 12 or 96 well plates (Fisher Scientific, Waltham, Mass. catalog nos. 353072 and 353043, respectively) at 70% confluent in 1000 μl/well or 200 μl/well of growth medium respectively. Cell plates were incubated overnight at 37° C. and 5% CO2 prior to compound treatment. For screening experiments, compounds at an initial concentration of 20 mM in 100% DMSO were diluted to different concentrations in growth medium.
For the generation of dose-response curves, compounds at an initial concentration of 20 mM in 100% DMSO were diluted to 30 μM in growth medium. The 30 μM solutions were then serially diluted 10-fold to achieve final concentration of 30 μM, 3 μM, 0.3 μM, 0.03 μM, and 0.003 μM in assay medium. Growth medium was aspirated from the plated cells and medium containing compound was added to the appropriate well. Cells were allowed to incubate for 24 h or 48 h at 37° C. and 5% CO2. Medium was collected from cells and centrifuged at 14,000 rpm for five min. The upper 50% of spun medium was collected and frozen for later analysis. The remaining cells were washed twice with 1000 μl/well or 200 μl/well cold phosphate buffered saline (PBS) at pH 7.4 and placed on ice. Cells were treated with 100 μl/well or 60 μl/well of lysis buffer comprised of 50 mM Tris, pH 8; 1% NP-40; 150 mM NaCl; 1 mM EDTA (purchased from Cell Signaling Technology, Inc., Danvers, Mass., catalog no. 9803) containing 1 mM phenylmethane sulfonyl fluoride (PMSF) and Roche protease inhibitor cocktail (available from Sigma-Aldrich, St. Louis, Mo.). Cells were allowed to incubate in lysis buffer on ice for 30 min. Cells were then collected and frozen overnight. Cells were centrifuged the next day at 14,000 rpm for 15 min. The supernatant was collected and analyzed for total protein or PCSK9 concentration.
Inhibition of secreted PCSK9 was measured in human hepatocellular carcinoma (HepG2) cells using a PCSK9 Quantikine®-brand ELISA kit purchased from R&D Systems, a wholly owned subsidiary of Bio-Techne Corporation, Minneapolis, Minn. (“Human Proprotein Convertase 9/PCSK9 Quantikine® ELISA Kit,” catalog #DPC900). The protocol provided in the kit was followed. Briefly, PCSK9 standards were prepared according to the instructions provided with the kit at final concentrations of 40 ng/mL, 20 ng/mL, 10 ng/mL, 5 ng/mL, 2.5 ng/mL, 1.25 ng/mL, 0.625 ng/mL and 0 ng/mL. The ELISA was conducted with the provided capture antibody-coated 96-well plate. Assay diluent was added to all relevant wells at a volume of 100 μL. 50 μL of sample (medium or cell lysate) or PCSK9 standard (in duplicate) was then added to the appropriate well. The plate was allowed to incubate for 2 h at room temperature. All wells were aspirated and washed four times with 300 μl of wash buffer. After washing, 200 μL of anti-PCSK9-HRP conjugate was added to all wells and the plate was allowed to incubate at room temperature for 2 h. After incubation all wells were aspirated and washed again four times with 300 μL of washing buffer.
After washing was completed, 200 μL of freshly prepared colorimetric reagent was added to all wells and the plate was incubated at room temperature in the dark for 30 min. After this final incubation a stop solution of 1N sulfuric acid was added to all wells, at which point absorbance was measured using a Tecan Infinite M1000 microplate reader at a wavelength of 450 nm (background absorbance was corrected by subtracting the absorbance measured at 540 nm). […]

Structures are written as SMILES. Values joined by “and” are separate entries in the source; they are usually repeats but may differ in a detail not shown here. Identical values can stand only once.

T1 sequence (Q8NBP7 153-692): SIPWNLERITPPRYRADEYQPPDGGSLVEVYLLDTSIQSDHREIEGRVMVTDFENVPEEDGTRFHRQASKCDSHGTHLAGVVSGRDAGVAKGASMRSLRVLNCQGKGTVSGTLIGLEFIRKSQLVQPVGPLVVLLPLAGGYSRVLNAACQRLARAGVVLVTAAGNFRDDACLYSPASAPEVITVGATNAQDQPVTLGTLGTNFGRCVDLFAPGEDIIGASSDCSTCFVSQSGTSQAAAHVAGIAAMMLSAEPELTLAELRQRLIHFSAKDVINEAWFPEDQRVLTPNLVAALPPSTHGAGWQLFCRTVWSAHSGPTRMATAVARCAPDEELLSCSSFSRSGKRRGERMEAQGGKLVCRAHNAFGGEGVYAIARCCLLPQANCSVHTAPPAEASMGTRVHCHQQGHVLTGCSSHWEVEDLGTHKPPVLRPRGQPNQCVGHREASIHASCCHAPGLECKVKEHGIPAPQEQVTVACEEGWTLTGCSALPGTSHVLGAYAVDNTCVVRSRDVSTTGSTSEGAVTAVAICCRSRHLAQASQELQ

As for `COc1ccc2cc3[n+](cc2c1OC)CCc1cc2c(cc1-3)OCO2` [BBR, berberine, reference compound], the “Activity at 1 μM (% of remaining PCSK9)” value is 88% and 69%; the “Activity at 10 μM (% of remaining PCSK9)” value was 54% and 51%.
With `Fc1ccc2[nH]c(Cc3c[nH]c4c(F)cccc34)nc2c1` [HX81], the “Activity at 1 μM (% of remaining PCSK9)” value was 46% and 40%.
For the compound `Fc1ccc2nc(Cc3c[nH]c4c(F)cccc34)n(Cc3ccccc3)c2c1` [HX178], the “Activity at 1 μM (% of remaining PCSK9)” value came out at 75% and the “Activity at 10 μM (% of remaining PCSK9)” value is 31%.
As to `Fc1ccc2nc(Cc3c[nH]c4c(F)cccc34)n(CCc3ccccc3)c2c1` [HX179], the “Activity at 1 μM (% of remaining PCSK9)” value stood at 62% and the “Activity at 10 μM (% of remaining PCSK9)” value was 48%.
As for `Fc1ccc2nc(Cc3c[nH]c4c(F)cccc34)n(Cc3ccncc3)c2c1` [HX181], the “Activity at 1 μM (% of remaining PCSK9)” value is 60% and the “Activity at 10 μM (% of remaining PCSK9)” value came out at 33%.
Turning to `Fc1ccc2nc(Cc3c[nH]c4c(F)cccc34)n(Cc3cccnc3)c2c1` [HX182], the “Activity at 1 μM (% of remaining PCSK9)” value is recorded as 86% and the “Activity at 10 μM (% of remaining PCSK9)” value is 89%.
As to `OCCn1c(Cc2c[nH]c3c(F)cccc23)nc2ccc(F)cc21` [HX183], the “Activity at 1 μM (% of remaining PCSK9)” value is on record as 70% and the “Activity at 10 μM (% of remaining PCSK9)” value stood at 27%.
For the compound `Cn1c(Cc2c[nH]c3c(F)cccc23)nc2ccc(F)cc21` [HX184], the “Activity at 1 μM (% of remaining PCSK9)” value was 34% and the “Activity at 10 μM (% of remaining PCSK9)” value came to 10%.
Consider `CC(C)Cn1c(Cc2c[nH]c3c(F)cccc23)nc2ccc(F)cc21` [HX185], for which the “Activity at 1 μM (% of remaining PCSK9)” value is recorded as 65% and the “Activity at 10 μM (% of remaining PCSK9)” value is on record as 42%.
On to `CC(C)(C)Cn1c(Cc2c[nH]c3c(F)cccc23)nc2ccc(F)cc21` [HX186], for which the “Activity at 1 μM (% of remaining PCSK9)” value came to 84% and the “Activity at 10 μM (% of remaining PCSK9)” value turned out to be 73%.
Regarding `[2H]C([2H])(c1nc2cc(F)ccc2[nH]1)c1c[nH]c2c(F)cccc12` [HX212], the “Activity at 1 μM (% of remaining PCSK9)” value is 45% and the “Activity at 10 μM (% of remaining PCSK9)” value came out at 25%.
With `O=C(c1nc2ccc(F)cc2[nH]1)c1c[nH]c2c(F)cccc12` [HX235], the “Activity at 1 μM (% of remaining PCSK9)” value is on record as 28%; the “Activity at 10 μM (% of remaining PCSK9)” value is reported as 26%; the half-maximal inhibitory concentration (IC50) – broadly, the point on the concentration scale where inhibition reaches its midpoint – was found to be 0.5 nM.
For the compound `O=C(c1cc2cc(F)ccc2[nH]1)c1c[nH]c2c(F)cccc12` [HX240], the “Activity at 1 μM (% of remaining PCSK9)” value came to 25%, the “Activity at 10 μM (% of remaining PCSK9)” value is 15% and half-maximal inhibition (IC50) was put at 13 nM.
Regarding `O=C(c1cc2ccccc2[nH]1)c1c[nH]c2ccccc12` [HX257], the “Activity at 1 μM (% of remaining PCSK9)” value was 25% and the “Activity at 10 μM (% of remaining PCSK9)” value is recorded as 13%.
In the case of `O=C(c1cc2ccccc2[nH]1)c1c[nH]c2c(F)cccc12` [HX258], the “Activity at 1 μM (% of remaining PCSK9)” value turned out to be 20% and the “Activity at 10 μM (% of remaining PCSK9)” value amounted to 14%.
For the compound `O=C(c1cc2cc(F)ccc2[nH]1)c1c[nH]c2ccccc12` [HX259], the “Activity at 1 μM (% of remaining PCSK9)” value was 28% and the “Activity at 10 μM (% of remaining PCSK9)” value is listed as 13%.
For the compound `Cn1c(C(=O)c2c[nH]c3c(F)cccc23)nc2ccc(F)cc21` [HX261], the “Activity at 1 μM (% of remaining PCSK9)” value is given as 21% and the “Activity at 10 μM (% of remaining PCSK9)” value is given as 20%.
With `O=C(c1nc2ccccc2[nH]1)c1c[nH]c2ccccc12` [HX262], the “Activity at 1 μM (% of remaining PCSK9)” value was 30% and the “Activity at 10 μM (% of remaining PCSK9)” value was 20%.
Consider `O=C(c1nc2ccccc2[nH]1)c1c[nH]c2c(F)cccc12` [MF025], for which the “Activity at 1 μM (% of remaining PCSK9)” value was found to be 27% and the “Activity at 10 μM (% of remaining PCSK9)” value is reported as 21%.
On to `Fc1ccc2[nH]c(Cc3c[nH]c4c(F)cccc34)cc2c1` [compound 9577], for which the “Activity at 1 μM (% of remaining PCSK9)” value is 59% and 50%; the “Activity at 10 μM (% of remaining PCSK9)” value was 17% and 13%; the IC50 is 44 nM.
